# Results reported in US20040248887A1, “Inhibitors of cathepsin S” (IRM LLC, priority 2003, published 2004).
# Biological target: Cathepsin S (Homo sapiens, UniProt P25774)
# Assay: Cathepsin S inhibition, fluorogenic peptide substrate kinetic assay
# Format: biochemical
# Settings: Table II; Cathepsin S inhibition constant, pH5.5; read-out: Ki Cat. S
# Procedure, shortened: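 Ki values derive from apparent constants fitted to progress curves, corrected for competition with substrate via [S] and Km. Kinetics were monitored at 380 nm excitation/450 nm emission, after substrate addition (Ac-HPVK-ACC, 50 μM final) to start the reaction.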
# Cathepsin S, sequence (P25774 115-331, species assumed): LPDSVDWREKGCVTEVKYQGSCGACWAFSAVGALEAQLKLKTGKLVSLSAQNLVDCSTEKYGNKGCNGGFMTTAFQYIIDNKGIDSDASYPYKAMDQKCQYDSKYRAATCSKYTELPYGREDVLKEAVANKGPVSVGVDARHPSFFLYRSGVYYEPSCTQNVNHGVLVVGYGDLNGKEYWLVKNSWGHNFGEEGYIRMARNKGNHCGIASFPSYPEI
row,Ki,Structure (SMILES)
1,< 10000 nM,"O=C(Nc1ccc(-c2ccccc2)s1)N[C@@H](CC1CCCCC1)C(=O)NCCN1CCc2cc(F)ccc21 [Compound 219, (S)-3-Cyclohexyl-N-[2-(5-fluoro-2,3-dihydro-indol-1-yl)-ethyl]-2-[3-(5-phenyl-thiophen-2-yl)-ureido]-propionamide]"
2,< 100 nM,"C[C@@H](CNc1ccc(F)cc1)NC(=O)[C@H](CC1CCCCC1)NC(=O)c1ccc(-c2cccc(F)c2)o1 [Compound 126, 5-(3-Fluoro-phenyl)-furan-2-carboxylic acid {2-cyclohexyl-1-(S)-[2-(4-fluoro-phenylamino)-1-(S)-methyl-ethylcarbamoyl]-ethyl}-amide]"
3,< 100 nM,"O=C(N[C@@H](CC1CCCCC1)C(=O)NCCN1CCc2cc(F)ccc21)c1ccc(-c2cccc(C(F)(F)F)c2)o1 [Compound 2, 5-(3-Trifluoromethyl-phenyl)-furan-2-carboxylic acid (S)-{2-cyclohexyl-1-[2-(5-fluoro-2,3-dihydro-indol-1-yl)-ethylcarbamoyl]-ethyl}-amide]"
4,< 100 nM,"COc1c(C)cc(NC[C@H](C)NC(=O)[C@H](CC2CCCCC2)NC(=O)c2ccc(-c3cccc(F)c3)o2)cc1C [Compound 115, 5-(3-Fluoro-phenyl)-furan-2-carboxylic acid {2-cyclohexyl-1-(S)-[2-(4-methoxy-3,5-dimethyl-phenylamino)-1-(S)-methyl-ethylcarbamoyl]-ethyl}-amide]"
5,< 1000 nM,"Cc1cccc(S(=O)(=O)N[C@@H](CC(C)(C)C)C(=O)N[C@@H](CC(=O)OC(C)(C)C)CN2CCc3cc(F)ccc32)c1 [Compound 252, (S,S)-3-[4,4-Dimethyl-2-(toluene-3-sulfonylamino)-pentanoylamino]-4-(5-fluoro-2,3-dihydro-indol-1-yl)-butyric acid tert-butyl ester]"
6,< 100 nM,"CC(C(=O)N[C@@H](CC1CCCCC1)C(=O)NCCN1CCc2cc(F)ccc21)c1ccc(-c2ccccc2)c(F)c1 (stereo partly drawn) [Compound 59, N-{2-cyclohexyl-1-(S)-[2-(5-fluoro-2,3-dihydro-indol-1-yl)-ethylcarbamoyl]-ethyl}-2-(2-fluoro-biphenyl-4-yl)-propionamide]"
7,< 1000 nM,"O=C(N[C@@H](CC1CCCCC1)C(=O)NCCN1CCc2cc(F)ccc21)C1CCN(S(=O)(=O)c2ccc(Cl)cc2)CC1 [Compound 17, 1-(4-Chloro-benzenesulfonyl)-piperidine-4-carboxylic acid (S)-{2-cyclohexyl-1-[2-(5-fluoro-2,3-dihydro-indol-1-yl)-ethylcarbamoyl]-ethyl}-amide]"
8,< 100 nM,"COc1cccc(C(=O)N[C@@H](CC(C)(C)C)C(=O)N[C@@H](Cc2nnn[nH]2)CN2CCc3cc(F)ccc32)c1 [Compound 166, N-{1-(S)-[2-(5-Fluoro-2,3-dihydro-indol-1-yl)-1-(S)-(1H-tetrazol-5-ylmethyl)-ethylcarbamoyl]-3,3-dimethyl-butyl}-3-methoxy-benzamide]"
9,< 1000 nM,"C[C@@H](CN1c2ccc(F)cc2CC1(C)C)NC(=O)[C@H](CC1CCCCC1)NC(=O)[C@H]1CCCO1 [Compound 274, Tetrahydrofuran-2-(R)-carboxylic acid {2-cyclohexyl-1-(S)-[2-(5-fluoro-2,2-dimethyl-2,3-dihydro-indol-1-yl)-1-(S)-methyl-ethylcarbamoyl]-ethyl}-amide]"
10,< 100 nM,"C[C@@H](CNc1ccc(OC(F)(F)F)cc1)NC(=O)[C@H](CC1CCCCC1)NC(=O)O[C@@H]1CCOC1 [Compound 188, {2-Cyclohexyl-1-(S)-[1-(S)-methyl-2-(4-trifluoromethoxy-phenylamino)-ethylcarbamoyl]-ethyl}-carbamic acid tetrahydrofuran-3-(R)-yl ester]"
11,< 100 nM,"Cc1cccc(S(=O)(=O)N[C@@H](CC(C)(C)C)C(=O)N[C@@H](C)CN2CCc3cc(F)ccc32)c1 [Compound 265, (S,S)-4,4-Dimethyl-2-(toluene-3-sulfonylamino)-pentanoic acid [2-(5-fluoro-2,3-dihydro-indol-1-yl)-1-methyl-ethyl]-amide]"
